Measurements from PubChem BioAssay AID328 (DTP/NCI, 2004).
Where “and” joins values, the source holds several entries; their conditions need not be identical. Equal entries are not always repeated. Toxic doses and inconclusive results are not listed.

Tested on: BDF1 mice, P388 leukemia ip, median survival T/C
Assay: NCI In Vivo Anticancer Drug Screen. Data for tumor model P388 Leukemia (intraperitoneal) in B6D2F1 (BDF1) mice
Details: endpoint: median survival time, higher = longer survival
Outline: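 Steps: implant the tumour, treat one group with compound and another with vehicle, record survival, then divide treated by control.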

[1] = dose: 3.12 mg/kg/injection, schedule: Q01DX009 (ip), vehicle: saline
[2] = dose: 6.25 mg/kg/injection, schedule: Q01DX009 (ip), vehicle: saline
[3] = dose: 12.5 mg/kg/injection, schedule: Q01DX009 (ip), vehicle: saline
[4] = dose: 100.0 mg/kg/injection, schedule: Q01DX009 (ip), vehicle: saline with Tween-80
[5] = dose: 400.0 mg/kg/injection, schedule: Q01DX009 (ip), vehicle: saline with Tween-80
[6] = dose: 100.0 mg/kg/injection, schedule: Q04DX003 (ip), vehicle: saline with Tween-80
[7] = dose: 200.0 mg/kg/injection, schedule: Q01DX009 (ip), vehicle: saline with Tween-80
[8] = dose: 200.0 mg/kg/injection, schedule: Q04DX003 (ip), vehicle: saline with Tween-80
[9] = dose: 400.0 mg/kg/injection, schedule: Q04DX003 (ip), vehicle: saline with Tween-80
[10] = dose: 50.0 mg/kg/injection, schedule: Q01DX009 (ip), vehicle: saline with Tween-80
[11] = dose: 25.0 mg/kg/injection, schedule: Q01DX009 (ip), vehicle: saline with Tween-80
[12] = dose: 100.0 mg/kg/injection, schedule: Q04DX003 (ip), vehicle: Klucel (hydroxypropylcellulose) (HPC)
[13] = dose: 200.0 mg/kg/injection, schedule: Q04DX003 (ip), vehicle: Klucel (hydroxypropylcellulose) (HPC)

## CCCCCCCCCCC[N+](C)(C)CCCCCC[N+](C)(C)CCCCCCCCCCC
dose: 1.56 mg/kg/injection, schedule: Q01DX009 (ip), vehicle: saline
  T/C: 90 % of control and 108 % of control
[1]
  T/C: 103 % of control
dose: 3.13 mg/kg/injection, schedule: Q01DX009 (ip), vehicle: saline
  T/C: 102 % of control and 118 % of control
[2]
  T/C: 115 % of control and 124 % of control
[3]
  T/C: 93 % of control and 109 % of control

## COc1cc2c(cc1OC)CC[N+](C)=C2
[1]
  T/C: 102 % of control
dose: 3.12 mg/kg/injection, schedule: Q04DX003 (ip), vehicle: saline
  T/C: 104 % of control
[2]
  T/C: 105 % of control
dose: 6.25 mg/kg/injection, schedule: Q04DX003 (ip), vehicle: saline
  T/C: 97 % of control and 122 % of control
[3]
  T/C: 102 % of control
dose: 12.5 mg/kg/injection, schedule: Q04DX003 (ip), vehicle: saline
  T/C: 95 % of control and 97 % of control
dose: 25.0 mg/kg/injection, schedule: Q01DX009 (ip), vehicle: saline
  T/C: 102 % of control
dose: 25.0 mg/kg/injection, schedule: Q04DX003 (ip), vehicle: saline
  T/C: 91 % of control
dose: 50.0 mg/kg/injection, schedule: Q01DX009 (ip), vehicle: saline
  T/C: 91 % of control
dose: 50.0 mg/kg/injection, schedule: Q04DX003 (ip), vehicle: saline
  T/C: 121 % of control
dose: 100.0 mg/kg/injection, schedule: Q04DX003 (ip), vehicle: saline
  T/C: 100 % of control

## COc1cccc(/C=C/C(=O)c2ccc(Cl)cc2)c1OC
dose: 50.0 mg/kg/injection, schedule: Q01DX009 (ip), vehicle: other
  T/C: 95 % of control
dose: 100.0 mg/kg/injection, schedule: Q01DX009 (ip), vehicle: other
  T/C: 104 % of control
[4]
  T/C: 100 % of control
dose: 200.0 mg/kg/injection, schedule: Q01DX009 (ip), vehicle: other
  T/C: 95 % of control
[5]
  T/C: 100 % of control

## CCOC(=O)c1c(N)sc2c1CCN(Cc1ccccc1)C2
[4]
  T/C: 104 % of control
[6]
  T/C: 100 % of control
[7]
  T/C: 95 % of control
[8]
  T/C: 104 % of control
[5]
  T/C: 119 % of control
[9]
  T/C: 109 % of control

## O=P1(N(CCCl)CCCl)NC(OOC2CCOP(=O)(N(CCCl)CCCl)N2)CCO1 (stereo unspecified)
dose: 50.0 mg/kg/injection, schedule: Q01DX001 (ip), vehicle: Klucel (hydroxypropylcellulose) (HPC)
  T/C: 200 % of control
dose: 100.0 mg/kg/injection, schedule: Q01DX001 (ip), vehicle: Klucel (hydroxypropylcellulose) (HPC)
  T/C: 236 % of control
dose: 200.0 mg/kg/injection, schedule: Q01DX001 (ip), vehicle: Klucel (hydroxypropylcellulose) (HPC)
  T/C: 272 % of control
dose: 400.0 mg/kg/injection, schedule: Q01DX001 (ip), vehicle: Klucel (hydroxypropylcellulose) (HPC)
  T/C: 273 % of control

## COc1cccc(CNc2cccc(Cl)c2Cl)c1OC
[6]
  T/C: 100 % of control
[8]
  T/C: 104 % of control
[9]
  T/C: 100 % of control

## CC(C)(C)c1ccc(Sc2cccc3c2C(=O)c2ccccc2C3)cc1
[10]
  T/C: 92 % of control
[4]
  T/C: 89 % of control
[7]
  T/C: 89 % of control

## O=C(O)c1cc(Br)cc(SSc2cc(Br)cc(C(=O)O)c2O)c1O
[11]
  T/C: 103 % of control
[10]
  T/C: 94 % of control
[4]
  T/C: 106 % of control

## C=CC(N)C(=O)O (stereo unspecified)
dose: 100.0 mg/kg/injection, schedule: Q04DX002 (ip), vehicle: saline with Tween-80
  T/C: 117 % of control
dose: 200.0 mg/kg/injection, schedule: Q04DX002 (ip), vehicle: saline with Tween-80
  T/C: 108 % of control
dose: 400.0 mg/kg/injection, schedule: Q04DX002 (ip), vehicle: saline with Tween-80
  T/C: 100 % of control

## CC1(C)CC2(CC(C)(C)c3cc(O)c(O)cc32)c2cc(O)c(O)cc21
dose: 100.0 mg/kg/injection, schedule: Q04DX003 (ip), vehicle: saline sonified
  T/C: 109 % of control
dose: 200.0 mg/kg/injection, schedule: Q04DX003 (ip), vehicle: saline sonified
  T/C: 104 % of control
dose: 400.0 mg/kg/injection, schedule: Q04DX003 (ip), vehicle: saline sonified
  T/C: 100 % of control

## COC1CC(N=[N+]=[N-])C(OC(=O)c2ccccc2)C(C)O1 (stereo unspecified)
[4]
  T/C: 94 % of control
[6]
  T/C: 101 % of control
[8]
  T/C: 106 % of control
[9]
  T/C: 106 % of control

## CCCCCCCCCCC(CCCCCCCCCC)CCCCCCCCC(CCCCCCCCCC)CCCCCCCCCC
[12]
  T/C: 108 % of control
[13]
  T/C: 93 % of control
dose: 400.0 mg/kg/injection, schedule: Q04DX003 (ip), vehicle: Klucel (hydroxypropylcellulose) (HPC)
  T/C: 97 % of control

## ClCc1cccc(CCl)c1
dose: 50.0 mg/kg/injection, schedule: Q01DX009 (ip), vehicle: saline sonified
  T/C: 108 % of control
dose: 100.0 mg/kg/injection, schedule: Q01DX009 (ip), vehicle: saline sonified
  T/C: 108 % of control
dose: 200.0 mg/kg/injection, schedule: Q01DX009 (ip), vehicle: saline sonified
  T/C: 86 % of control

## O=C1OC(=Nc2cccc([N+](=O)[O-])c2)c2ccccc21
[10]
  T/C: 150 % of control
[7]
  T/C: 97 % of control

## O=C1CN(N2C(=O)CSC2C23CC4CC(CC(C4)C2)C3)C(=O)CN1c1ccccc1 (stereo unspecified)
[10]
  T/C: 92 % of control
[4]
  T/C: 92 % of control

## CC1(C)CC(=O)C(C(=O)Nc2ccc(Cl)cc2)C(=O)C1
[10]
  T/C: 98 % of control
[4]
  T/C: 93 % of control
[7]
  T/C: 89 % of control

## CCCCCC#CC1OC1(C)C (stereo unspecified)
dose: 12.5 mg/kg/injection, schedule: Q01DX009 (ip), vehicle: saline with Tween-80
  T/C: 97 % of control and 100 % of control
[11]
  T/C: 101 % of control and 103 % of control
[10]
  T/C: 108 % of control and 116 % of control
[4]
  T/C: 108 % of control and 117 % of control and 121 % of control

## C[C@]12C=CC(=O)C=C1CC[C@@H]1[C@@H]2[C@@H](O)C[C@@]2(C)[C@H]1CC[C@]2(O)C(=O)CO
dose: 12.5 mg/kg/injection, schedule: Q01DX010 (sc), vehicle: steriod suspending solution
  T/C: 109 % of control and 120 % of control
dose: 25.0 mg/kg/injection, schedule: Q01DX010 (sc), vehicle: steriod suspending solution
  T/C: 109 % of control and 110 % of control
dose: 50.0 mg/kg/injection, schedule: Q01DX010 (sc), vehicle: steriod suspending solution
  T/C: 113 % of control and 120 % of control
dose: 100.0 mg/kg/injection, schedule: Q01DX010 (sc), vehicle: steriod suspending solution
  T/C: 118 % of control and 120 % of control

## COc1cccc2c1C(=O)CC2
dose: 25.0 mg/kg/injection, schedule: Q01DX009 (ip), vehicle: Klucel (hydroxypropylcellulose) (HPC)
  T/C: 100 % of control
dose: 50.0 mg/kg/injection, schedule: Q01DX009 (ip), vehicle: Klucel (hydroxypropylcellulose) (HPC)
  T/C: 100 % of control
dose: 75.0 mg/kg/injection, schedule: Q04DX003 (ip), vehicle: Klucel (hydroxypropylcellulose) (HPC)
  T/C: 100 % of control
dose: 100.0 mg/kg/injection, schedule: Q01DX009 (ip), vehicle: Klucel (hydroxypropylcellulose) (HPC)
  T/C: 96 % of control
dose: 150.0 mg/kg/injection, schedule: Q04DX003 (ip), vehicle: Klucel (hydroxypropylcellulose) (HPC)
  T/C: 95 % of control

## CCC[CH2][Sn]1([CH2]CCC)[O]OC(c2ccc(OC)cc2)[O]1 (stereo unspecified)
dose: 3.12 mg/kg/injection, schedule: Q01DX009 (sc), vehicle: olive oil, sesame oil, peanut oil
  T/C: 112 % of control
dose: 6.25 mg/kg/injection, schedule: Q01DX009 (sc), vehicle: olive oil, sesame oil, peanut oil
  T/C: 99 % of control

## Nc1ccc(Nc2ccncc2)cc1
dose: 50.0 mg/kg/injection, schedule: Q04DX003 (ip), vehicle: Klucel (hydroxypropylcellulose) (HPC)
  T/C: 100 % of control
[12]
  T/C: 95 % of control
[13]
  T/C: 90 % of control

## C[C@H]1C(=O)O[C@@H]2CCN3CC=C(COC(=O)[C@](C)(O)[C@@]1(C)O)[C@H]23
dose: 3.13 mg/kg/injection, schedule: Q01DX010 (ip), vehicle: saline
  T/C: 100 % of control
dose: 6.2 mg/kg/injection, schedule: Q01DX009 (ip), vehicle: saline
  T/C: 111 % of control
dose: 6.25 mg/kg/injection, schedule: Q01DX010 (ip), vehicle: saline
  T/C: 100 % of control
[3]
  T/C: 122 % of control
dose: 12.5 mg/kg/injection, schedule: Q01DX009 (ip), vehicle: water
  T/C: 109 % of control
dose: 12.5 mg/kg/injection, schedule: Q01DX010 (ip), vehicle: saline
  T/C: 104 % of control
dose: 25.0 mg/kg/injection, schedule: Q01DX009 (ip), vehicle: water
  T/C: 86 % of control
dose: 25.0 mg/kg/injection, schedule: Q01DX010 (ip), vehicle: saline
  T/C: 104 % of control
dose: 50.0 mg/kg/injection, schedule: Q01DX009 (ip), vehicle: water
  T/C: 118 % of control
dose: 75.0 mg/kg/injection, schedule: Q01DX009 (ip), vehicle: water
  T/C: 104 % of control
